pIC50: −log10 of the molar value.
How the values were obtained:
BACE1 [1] = molecular target: T1, BACE1 (Homo sapiens, UniProt P56817); assay: In Vitro Enzymatic BACE FRET (Fluorescence Resonance Energy Transfer) Assay; type: biochemical
How it was run: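 Buffer 0.05 M acetate pH 4.2 with 10% DMSO final and 100 uM genapol; reaction started with 50 nM FRET peptide substrate (fluorophore/quencher flanking BACE cleavage site), incubated one hour. Stopped with Tris buffer raising pH to neutrality, then fluorescence read.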

BACE1 [2] = molecular target: T1, BACE1; assay: In Vitro BACE Cell-based Assay (HEK cell assay): Aβ40 in conditioned medium of cells stably expressing Amyloid Precursor Protein, sandwich ELISA
How it was run: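 First, APP-stable cells grow 24 h at 37° C., 5% CO2. Next, test compounds are added for 24 h (10 doses, 0.1% DMSO). Finally, medium Aβ40 is determined by pAb40/6E10 sandwich ELISA with Europium TRF, and IC50 is calculated.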

[3] = Table II, read-out: BACE1 FRET assay
[4] = Table II, Aβ40, 24 h incubation, read-out: HEK cell assay
[5] = in vitro BACE FRET enzyme assay, IC50 class symbols, read-out: BACE1 FRET assay
[6] = HEK cell-based assay, Aβ40 in conditioned medium, IC50 class symbols, read-out: HEK cell assay
[7] = Table IV, class symbols, read-out: BACE1 FRET assay
[8] = Table IV, class symbols, read-out: HEK cell assay
[9] = Table III, IC50's in uM ranges, read-out: BACE1 FRET assay
[10] = Table III, IC50's in uM ranges, read-out: HEK cell assay

T1 sequence (P56817 46-501, species assumed): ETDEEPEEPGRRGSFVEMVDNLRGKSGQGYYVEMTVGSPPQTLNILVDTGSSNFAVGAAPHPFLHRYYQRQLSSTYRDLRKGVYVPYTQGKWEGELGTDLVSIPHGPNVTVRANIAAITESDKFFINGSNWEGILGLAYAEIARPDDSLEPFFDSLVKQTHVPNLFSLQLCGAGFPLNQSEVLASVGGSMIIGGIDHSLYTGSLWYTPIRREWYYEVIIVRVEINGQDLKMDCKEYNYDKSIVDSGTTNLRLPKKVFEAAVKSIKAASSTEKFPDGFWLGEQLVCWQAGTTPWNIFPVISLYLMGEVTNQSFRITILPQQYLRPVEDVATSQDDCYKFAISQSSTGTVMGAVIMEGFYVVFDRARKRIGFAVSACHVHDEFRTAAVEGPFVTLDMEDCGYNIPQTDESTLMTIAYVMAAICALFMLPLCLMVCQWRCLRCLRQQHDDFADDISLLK

## Cc1noc(C)c1-c1ccc2c(c1)[C@@]1(COC(N)=N1)c1cc(OCC(C)(C)C)ccc1O2 [compound 976]
BACE1 [1]; read-out: BACE1 FRET assay
  pIC50: 6.00 to 7.00
BACE1 [2]; read-out: HEK cell assay
  pIC50: < 5.30

## CC(C)(C)COc1ccc2c(c1)[C@]1(COC(N)=N1)c1cc(N3CCOCC3)ccc1O2 [Example 43, (4S)-2′-(2,2-dimethylpropoxy)-7′-(4-morpholinyl)spiro[1,3-oxazole-4,9′-xanthen]-2-amine]
BACE1 [1]; [3]
  pIC50: 6.00 to 7.00
BACE1 [2]; [4]
  pIC50: 6.00 to 7.00

## COc1ccc2c(c1)[C@]1(COC(N)=N1)c1cc(C3=CCOCC3)cc(F)c1O2 [compound 363]
BACE1 [1]; [5]
  pIC50: < 5.30
BACE1 [2]; [6]
  pIC50: < 5.30

## CCOC(C)(C)C#Cc1cnc2c(c1)[C@]1(COC(N)=N1)c1cc(-c3cccnc3)ccc1O2 [compound 347]
BACE1 [1]; [5]
  pIC50: > 7.00
BACE1 [2]; [6]
  pIC50: > 7.00

## COc1ccc2c(c1)[C@]1(COC(N)=N1)c1cc(NC(=O)COc3ccccc3)ccc1O2 [compound 374]
BACE1 [1]; [5]
  pIC50: 6.00 to 7.00
BACE1 [2]; [6]
  pIC50: 5.30 to 6.00

## COc1ccc2c(c1)[C@]1(COC(N)=N1)c1cc(-c3cccc4ncccc34)ccc1O2 [compound 591]
BACE1 [1]; [7]
  pIC50: 5.30 to 6.00
BACE1 [2]; [8]
  pIC50: 5.30 to 6.00

## CC1(COc2cc3c(cc2F)Oc2ccc(-c4cncnc4)cc2[C@@]32COC(N)=N2)COC1 [compound 712]
BACE1 [1]; read-out: BACE1 FRET assay
  pIC50: > 7.00
BACE1 [2]; read-out: HEK cell assay
  pIC50: > 7.00

## CC(C)(C)COc1ccc2c(c1)[C@@]1(COC(N)=N1)c1cc(-c3ccc(OCC4CC4)nc3)cnc1O2 [compound 741]
BACE1 [1]; read-out: BACE1 FRET assay
  pIC50: > 7.00
BACE1 [2]; read-out: HEK cell assay
  pIC50: > 7.00

## CCCOc1cc2c(cc1F)Oc1ccc(-c3cncnc3)cc1[C@@]21COC(N)=N1 [compound 940]
BACE1 [1]; read-out: BACE1 FRET assay
  pIC50: > 7.00
BACE1 [2]; read-out: HEK cell assay
  pIC50: > 7.00

## CC(C)(C)C#Cc1cnc2c(c1)[C@@]1(COC(N)=N1)c1cc(-c3cccnc3)ccc1O2 [185a]
BACE1 [1]; [9]
  IC50: 0.1 to 1 µM
BACE1 [2]; [10]
  IC50: 1 to 5 µM

## C=C(C)COc1ccc2c(c1)[C@]1(COC(N)=N1)c1cc(-c3cccnc3)ccc1O2 [compound 146]
BACE1 [1]; [9]
  IC50: < 0.1 µM
BACE1 [2]; [10]
  IC50: 0.1 to 1 µM

## NC1=N[C@]2(CO1)c1cc(OC[C@H](O)C(F)(F)F)ccc1Oc1ccc(-c3cccnc3)cc12 [compound 924]
BACE1 [1]; [7]
  pIC50: > 7.00
BACE1 [2]; [8]
  pIC50: 6.00 to 7.00

## CCC(C)(O)COc1ccc2c(c1)[C@]1(COC(N)=N1)c1cc(-c3cccnc3)ccc1O2 (stereo partly shown) [compound 770]
BACE1 [1]; read-out: BACE1 FRET assay
  pIC50: > 7.00
BACE1 [2]; read-out: HEK cell assay
  pIC50: > 7.00

## NC1=N[C@@]2(CO1)c1cc(-c3cccnc3N3CCOCC3)ccc1Oc1cnc(Cl)cc12 [compound 337]
BACE1 [1]; [5]
  pIC50: 5.30 to 6.00
BACE1 [2]; [6]
  pIC50: < 5.30

## COc1ccc2c(c1)[C@@]1(COC(N)=N1)c1cc(NC(=O)c3ccc(Cl)cn3)ccc1O2 [Example 55, N-((4R)-2-amino-7′-methoxyspiro[1,3-oxazole-4,9′-xanthen]-2′-yl)-5-chloro-2-pyridinecarboxamide]
BACE1 [1]; [3]
  pIC50: > 7.00
BACE1 [2]; [4]
  pIC50: 6.00 to 7.00

## CN(C)CC#Cc1ccc2c(c1)[C@@]1(COC(N)=N1)c1cc(OCC(C)(C)C)ccc1O2 [Example 89, (4S)-2′-(3-(dimethylamino)-1-propyn-1-yl)-7′-(2,2-dimethylpropoxy)spiro[1,3-oxazole-4,9′-xanthen]-2-amine]
BACE1 [1]; [3]
  pIC50: 6.00 to 7.00
BACE1 [2]; [4]
  pIC50: 6.00 to 7.00

## CC(C)N1CC=C(c2ccc3c(c2)[C@]2(COC(N)=N2)c2cc(-c4cncnc4)ccc2O3)CC1 [compound 714]
BACE1 [1]; read-out: BACE1 FRET assay
  pIC50: 6.00 to 7.00
BACE1 [2]; read-out: HEK cell assay
  pIC50: > 7.00

## NC1=N[C@@]2(CO1)c1cc(-c3cccnc3)ccc1Oc1cnc(C3CCOCC3)cc12 [compound 801]
BACE1 [1]; [7]
  pIC50: > 7.00
BACE1 [2]; [8]
  pIC50: > 7.00

## NC1=N[C@@]2(CO1)c1cc(-c3cncc(F)c3)ccc1Oc1cnc(C3CCOCC3)cc12 [compound 331]
BACE1 [1]; [5]
  pIC50: > 7.00
BACE1 [2]; [6]
  pIC50: > 7.00

## COC(C)(C)COc1ccc2c(c1)[C@]1(COC(N)=N1)c1cc(-c3cccnc3)ccc1O2 [compound 149]
BACE1 [1]; [9]
  IC50: < 0.1 µM
BACE1 [2]; [10]
  IC50: < 0.1 µM

## NC1=N[C@@]2(CO1)c1cc(-c3cccnc3F)ccc1Oc1cnc(C3=CCCCO3)cc12 [compound 371]
BACE1 [1]; BACE1 FRET assay (uM)
  IC50: < 0.1 µM
BACE1 [2]; HEK cell assay (uM)
  IC50: < 0.1 µM

## CCOC(C)(C)COc1ccc2c(c1)[C@]1(COC(N)=N1)c1cc(-c3cccnc3)ccc1O2 [compound 172]
BACE1 [1]; [9]
  IC50: < 0.1 µM
BACE1 [2]; [10]
  IC50: < 0.1 µM

## CC(C)(C)COc1ccc2c(n1)[C@@]1(COC(N)=N1)c1cc(Br)ccc1O2 [compound 734]
BACE1 [1]; read-out: BACE1 FRET assay
  pIC50: < 5.30
BACE1 [2]; read-out: HEK cell assay
  pIC50: < 5.30

## CCOc1ccc(-c2cnc3c(c2)[C@]2(COC(N)=N2)c2cc(OC)ccc2O3)cn1 [compound 667]
BACE1 [1]; read-out: BACE1 FRET assay
  pIC50: 6.00 to 7.00
BACE1 [2]; read-out: HEK cell assay
  pIC50: 6.00 to 7.00

## CC(C)(C)COc1ccc2c(c1)[C@]1(COC(N)=N1)c1cc(-c3ccc(=O)[nH]c3)ccc1O2 [compound 980]
BACE1 [1]; read-out: BACE1 FRET assay
  pIC50: 6.00 to 7.00
BACE1 [2]; read-out: HEK cell assay
  pIC50: 5.30 to 6.00

## CC(=O)c1cccc(-c2ccc3c(c2)[C@]2(COC(N)=N2)c2cc(-c4cncnc4)ccc2O3)c1 [compound 889]
BACE1 [1]; [7]
  pIC50: > 7.00
BACE1 [2]; [8]
  pIC50: > 7.00

Reference: patent publication US8426447B2, “Spiro-tricyclic ring compounds as beta-secretase modulators and methods of use” (Amgen Inc., priority 2008, dated 2013)
